Tested on: syphilis-associated membranous nephropathy (nephrotic syndrome)
Assay: Follow-up of syphilis-associated NDNF-positive membranous nephropathy patients treated with antibiotics
Type: in vivo, human
Protocol: Biopsies for diagnosis were evaluated. The diagnosis of MN was confirmed by light microscopy (LM), immunofluorescence (IF) microscopy including PLA2R studies, and electron microscopy (EM). The clinical information was obtained from the accompanying charts. For detection of novel proteins, MS/MS was performed in 250 cases of PLA2R-negative cases (discovery cohort) that included cases used for identification of EXT1/EXT2, NELL1, SEMA3B, PCDH7, and FAT1 (Sethi et al., J. Am. Soc. Nephrol., 30:1123-1136 (2019); Sethi et al., Kid. Int., 97:163-174 (2020); Sethi et al., Kid. Int., 98:1253-1265 (2020); Sethi et al., J. Am. Soc. Nephrol., 32:1249-1261 (2021); and Sethi et al., J. Am. Soc. Nephrol., 33:1033-1044 (2022)). A NDNF polypeptide was detected in 3 cases of PLA2R-negative MN (NDNF-associated MN) by MS/MS. All 3 cases were negative for spectral counts for THSD7A, EXT1/EXT2, NELL1, SEMA3B, HTRA1, CNTN1, NCAM1, PCDH7, and FAT1 while baseline spectral counts for PLA2R were present in 2 of the 3 cases.
Using MS/MS, 14 cases of hepatitis B-associated MN and 5 cases of syphilis-associated MN were screened for MN antigens (validation cohort). Tissue from 4 cases (cases 4-7) of syphilis-associated MN were obtained from Cedars Sinai Medical Center and one case (cases 8-9) from Mayo Clinic. Cases 8 and 9 were from the same patient who was biopsied twice, 3 months apart. […]

Substance: penicillin
- Repeat kidney biopsy finding after treatment (Case 8, repeat biopsy 3 months later, after complete remission): continued to show membranous nephropathy
- Outcome of the nephrotic syndrome after antibiotic treatment (patients with syphilis and NDNF-associated MN, follow-up available in 4 of the 6 cases of syphilis): complete remission
